# Entries after “also recorded” stand apart in the source; their conditions may differ.
# Columns and labels:
# [1] = test system: SYK mRNA in melanoma cell lines; assay: Quantitative RT-PCR of SYK expression after 5AzadC treatment; assay type: cell-based, human; settings: in a subset (4/8) of cell lines with SYK methylation
# Procedure: (§1) 5AzadC treatment and microarray analysis. Cells were grown to 50% confluence in 100 mm culture plates and treated with 5 μM 5AzadC (Sigma; St. Louis, Mo.) dissolved in growth media. Fresh 5AzadC media was added every 24 hours until the end of the assay (96 hours). RNA and DNA were isolated from a batch of 5AzadC treated cells every 24 hours starting with 0 hour controls. RNA was isolated following 0 hr and 48 hr 5AzadC treatment of six melanoma cell lines (MelJuSo, UACC 903, c8161, Neo-6 c8161, WM1205 and WM35) and used for the re-expression microarray analysis. Total RNA was isolated using the RNeasy kit (Qiagen; Valencia, Calif.) according to manufacturer's instructions. […] Probe set signal calls with p values greater than 0.01 were not further evaluated. […]
# (§2) Bisulfite sequencing and quantitative PCR. […] Particular CpG sites were scored as positive if the C:T peak ratio exceeded 1:3 (at least 25% methylation). Real time quantitative PCR was performed for validation of microarray expression data of selected candidate genes by using 2.5 μl of 100 fold diluted cDNA template and 0.2 μM gene specific primers in a 25 μl PCR reaction using JumpStart SYBR green kit (Sigma) according to manufacturer's instructions in an ABI 7700. The reactions were performed in duplicate, CT values obtained were normalized to GAPDH levels and quantification was performed using the comparative CT method.
# [2] = test system: HOXB13 mRNA in melanoma cell lines; assay: Quantitative RT-PCR of HOXB13 expression after 5AzadC treatment; assay type: cell-based, human; settings: in 2 out of 3 cell lines with promoter region methylation
# Procedure: as §1, §2
# [3] = test system: QPCT promoter region in MelJuSo melanoma cell line; assay: Bisulfite sequencing of promoter region after 5AzadC treatment; assay type: cell-based, human; settings: 48 h, bisulfite sequencing (FIG. 5)
# Procedure: FIG. 5A represents the original sequence for comparison (SEQ ID NO:58).
# Bisulfite sequencing and quantitative PCR. DNA was isolated from cells and tissues using standard phenol-chloroform extraction. Bisulfite modification was performed as previously described (24) on DNA from melanocytes, melanoma cell lines prior to and after 48 hr treatment with 5AzadC and DNA from melanoma tissues. PCR reactions were carried out using 50 ng of bisulfite modified DNA in a 30 μl volume with a 0.2 μM primer concentration (primer sequences are provided in the Table 2 with the amplified regions of selected genes provided in Table 3). PCR products were purified using the Qiaquick Gel Extraction kit (Qiagen) and directly sequenced on the ABI 3100-Avant automated DNA sequencer. Particular CpG sites were scored as positive if the C:T peak ratio exceeded 1:3 (at least 25% methylation). Real time quantitative PCR was performed for validation of microarray expression data of selected candidate genes by using 2.5 μl of 100 fold diluted cDNA template and 0.2 μM gene specific primers in a 25 μl PCR reaction using JumpStart SYBR green kit (Sigma) according to manufacturer's instructions in an ABI 7700. The reactions were performed in duplicate, CT values obtained were normalized to GAPDH levels and quantification was performed using the comparative CT method.
# [4] = test system: methylated candidate genes in melanoma cell lines; assay: Quantitative RT-PCR of candidate genes after 5AzadC treatment; assay type: cell-based, human; settings: expression relative to melanocytes
# Procedure: as §1, §2
# [5] = test system: six human melanoma cell lines (MelJuSo, UACC 903, c8161, Neo-6 c8161, WM1205 and WM35); assay: Re-expression microarray analysis after 5AzadC treatment; assay type: cell-based; settings: 5 μM 5AzadC, 48 hours, relative to untreated cells; in at least one of the six melanoma cell lines; HG U133A microarray
# Procedure: as §1, with “instructions. Preparation of double stranded cDNA and in-vitro transcription (IVT) was as per manufacturer's recommendations. Biotinylated cRNA obtained from IVT were fragmented and hybridized on Human Genome U133A array as per manufacturer's recommendations (Affymetrix; Santa Clara, Calif.).” for “instructions.”
# In order to determine DNA methylation-related expression changes, six human melanoma cell lines were treated with 5AzadC and compared for expression changes at 48 hours post-treatment relative to untreated melanoma cell lines. […] No DNA methylation was detected in primary human melanocytes at any of the loci. […]
compound,measurement,setting,value
"Nc1ncn([C@H]2C[C@H](O)[C@@H](CO)O2)c(=O)n1 [5AzadC, 5-Aza-2′-deoxycytidine]",Upregulation of SYK,[1],> 2 fold
same,Re-expression of HOXB13,[2],Re-expression of HOXB13 occurred
same,Demethylation of promoter region,[3],Demethylation was also induced; also recorded: demethylation of the promoter region
same,Reversal of loss of expression of promoter-methylated candidate genes,[4],could be reversed in the majority of cases
same,Increase of expression of 150 genes upon 5AzadC treatment,[5],greater than 4 fold

# — US20100143899A1, “METHODS AND PRODUCTS FOR DIAGNOSING CANCER” (University of Vermont and State Agricultural College, priority 2005, published 2010)
